According to ChEMBL document CHEMBL3301451, “MMV Malaria Box gametocyte functional viability assay screening”:

What was measured:
Format in all cases: functional
Design in all cases: concentration or dose not given beside the values
[1] = test system: Plasmodium berghei; assay: MMV: P. berghei-infected blood was withdrawn from mice by cardiac pucture before being immediately added to ookinete culture medium containing test compounds. 26 hr later, GFP-positive ookinetes were identified and counted by automated microscopy. All compounds were tested in 4 independent experiments and data presented here is the mean.
[2] = test system: Plasmodium falciparum; assay: MMV: P. falciparum NF54 functionally mature Stage V gametocytes were incubated for 24 hr in the presence of the test compounds. Gamete formation was then triggered by addition of 2uM xantheurenic acid and temperature decrease to ~20C. Female gamete formation was recorded 24 hr later by automated microscopy detection of surface labelling of female gametes with a Cy3-conjugated antibody reactive to Pfs25. All compounds were tested in 4 independent experiments and data presented here is the mean.; settings: NF54, 24 h
[3] = test system: Plasmodium falciparum; assay: MMV: P. falciparum NF54 functionally mature Stage V gametocytes were incubated for 24 hr in the presence of the test compounds. Gamete formation was then triggered by addition of 2uM xantheurenic acid and temperature decrease to ~20C. Male gamete exflagellation was recorded and analysed by automated microscopy after 20 min. All compounds were tested in 4 independent experiments and data presented here is the mean.

Row | SMILES | inhibition [1] | inhibition [2] | inhibition [3]
1 | Cc1cc(NC(=O)C2c3ccccc3C(=O)N(CC(C)C)C2c2cccs2)no1 (stereo not given) | -16.54% | 40.3% | 52.5%
2 | CC(C)(C)c1ccc(C2CC3=Nc4ccccc4N(C(=O)c4ccccc4Cl)C(c4ccc(F)cc4)C3=C(O)C2)cc1 (stereo not given) | 4.566% | -44.4% | -39.9%
3 | Cc1cc(Nc2ccc3ccccc3c2)n2ncnc2n1 | -3.995% | -8.79% | -4.18%
4 | Oc1ccc(Br)cc1CN1CCN(Cc2ccc(Cl)cc2)CC1 | -27.93% | -35.8% | -54.3%
5 | OC(CNC1CCCCC1)Cn1c2ccc(I)cc2c2cc(I)ccc21 (stereo not given) | -21.59% | -48% | -12.3%
6 | O=C(Nc1ccc(CN2CCOCC2)cc1)c1ccc(-c2ccc(Br)cc2)o1 | -6.99% | -17.9% | 14.4%
7 | Cc1sc2ncnc(Sc3nc4ccccc4[nH]3)c2c1C | 65.53% | -10.9% | 30.8%
8 | Cc1ccc2nc(C)cc(Nc3cccc(C(F)(F)F)c3)c2c1.Cl | -4.574% | -16.2% | -27.5%
9 | Nc1ccc(-c2nc3cc(Cc4ccc5[nH]c(-c6ccc(N)cc6)nc5c4)ccc3[nH]2)cc1 | -14.26% | 2.76% | 26.6%
10 | c1ccc(Cn2c(N=Nc3c(Nc4ccccc4)ccc4ccccc34)nc3ccccc32)cc1 | 7.124% | 7.17% | -0.509%
11 | CCOc1ccc(CCNC(=O)c2cccs2)cc1OCC | 8.759% | 2.16% | 22%
12 | CCOc1ccc(-c2nc(NC(=O)c3cccc(S(C)(=O)=O)c3)sc2C)cc1 | -6.261% | -21% | 0.81%
13 | CCOC(=O)C1=CN(C)C=C(C(=O)OCC)C1c1cc(Br)c(OCC)c(OC)c1 | -13.86% | -20.1% | 22.3%
14 | CCOC(=O)c1cnc2ccc(Cl)cc2c1NCCCN(C)C | -2.955% | -11.1% | -9.15%
15 | COc1ccc2c(c1)OC(O)(C(F)(F)C(F)(F)F)CC2=O (stereo not given) | -0.6954% | -4.89% | -139%
16 | O=C(NCc1ccco1)C1CCN(S(=O)(=O)c2ccc(Br)cc2)CC1 | 31.69% | 5.71% | 29.2%
17 | Cc1cc(C)c2nc(N3CCC(C(=O)NCCCN4CCC(N5CCCCC5)CC4)CC3)sc2c1 | -9.223% | 21.7% | 8.94%
18 | FC(F)(F)c1cccc(Nc2nc3ccccc3nc2Nc2cccc(C(F)(F)F)c2)c1 | -0.8978% | -14.6% | 24.6%
19 | CCOC(=O)c1c[nH]c2c(CC)cccc2c1=O | -1.306% | 8.74% | 21.5%
20 | Cc1cc(NC(=O)c2ccc(-c3ccccc3)cc2)no1 | -9.578% | -45.6% | 18.9%
21 | O=C(NCC(c1ccsc1)N1CCCCCC1)c1ccc(C(F)(F)F)cc1 (stereo not given) | -31.95% | -37.4% | -14.6%
22 | COc1ccc(C(=O)Nc2ccc(Cl)cc2C(=O)Nc2ccncc2)cc1 | -4.155% | -19.7% | 14.4%
23 | CCN(CC)CCCNc1ccnc2cc3ccccc3cc12 | -14.18% | 20.2% | 30.2%
24 | COc1ccc2c(c1OC)C(=O)N1c3ccccc3N=C(c3ccc(C)cc3)CC21 (stereo not given) | -1.051% | -8.58% | 8.91%
25 | CCN(CC)CCNc1ncnc2c1[nH]c1ccc(Cl)cc12 | -19.34% | -27.6% | -43.5%
26 | CC(=O)c1ccc(NC(=O)CSc2nc(-c3ccccc3Cl)ns2)cc1 | -19.34% | 2.09% | 33.1%
27 | O=C1CC(O)(C(F)(F)C(F)(F)F)Oc2ccccc21 (stereo not given) | -0.9117% | -15.2% | –
